Data published in patent US4999371A, “Substituted 3,4-dihydro-2H-benzopyrans, processes for their preparation, their use and pharmaceutical products based on these compounds” (Hoechst Aktiengesellschaft, priority 1987, dated 1991).

System: Langendorff heart preparation
Assay: Coronary flow in the Langendorff heart preparation of Guinea pigs
Settings: 6 heart preparations
Experimental: Coronary flow in the Langendorff heart preparation of Guinea pigs
Guinea pigs of either sex were killed by a blow on the head. The hearts were quickly removed and perfused according to Langendorff (Langendorff, Pflugers Arch. Ges. Physiol. 190, 280 (1895)) with a Ringer solution containing 154 mMol NaCl, 5,6 mMol KCl, 1,9 mMol CaCl2, 2,4 mMol NaHCO3 and 5 mMol glucose which was gassed with oxygen. The temperature of the solution was 37° C. The test substances dissolved in propanediol (0,1%) were added to the inflowing Ringer solution by bolus injection into the inflow tract. The effect, i.e. changes of the coronary outflow, was measured with a drop counter and registered on a Hellige Multiscriptor (Hellige GmbH, Freiburg, Germany) For each compound increase in coronary outflow was measured for three different doses and each dose was tested in 6 different heart preparations.

| Structure (SMILES) | Duration of elevated coronary outflow (single dose 500 ng) | other results |
| --- | --- | --- |
| CC1(C)Oc2ccc(S(C)(=O)=O)cc2[C@@H](N2CCCC2=O)[C@@H]1O (racemic) [(±)-2,2-Dimethyl-3,4-dihydro-6-methylsulfonyl-trans-4-(2-oxo-1-pyrrolidinyl)-2H-benzo[b]pyran-3-ol, reference compound] |  | Duration of elevated coronary outflow (single dose 2000 ng): 5 min |
| CC1(C)Oc2ccc(C#N)cc2[C@@H](N2CCCC2=O)[C@@H]1O (racemic) [(±)-6-Cyano-3,4-dihydro-2,2-dimethyl-trans-4-(2-oxo-1-pyrrolidinyl)-2H-benzo[b]pyran-3-ol, reference compound] | 6 min |  |
| COc1cc2c(cc1S(=O)(=O)c1ccccc1)[C@@H](N1CCCC1=O)[C@H](O)C(C)(C)O2 (relative stereo) [Example 3, 3,4-Dihydro-2,2-dimethyl7-methoxy-6-phenylsulfonyl-trans-4-(2-oxo-1-pyrrolidinyl)-2H -benzo[b]-3-ol] | 14 min |  |
| Cc1ccc(S(=O)(=O)c2ccc3c(c2)[C@@H](N2CCCC2=O)[C@H](O)C(C)(C)O3)cc1 (relative stereo) [Example 4, 3,4-Dihydro-2,2-dimethyl-6-(4-methylphenylsulfonyl)-trans-4-(2-oxo-1-pyrrolidinyl)-2H -benzo[b]pyran-3-ol] | 11 min |  |
| CC1(C)Oc2ccc(S(=O)(=O)c3ccccc3)cc2[C@@H](N2CCCC2=O)[C@@H]1O (relative stereo) [Example 5, 3,4-Dihydro-2,2-dimethyl-6-phenylsulfonyl-trans-4-(2-oxo1-pyrrolidinyl)-2H-benzo[b]pyran-3-ol] |  | Duration of elevated coronary outflow (single dose 400 ng): 11 min |
| Cc1ccccc1S(=O)(=O)c1ccc2c(c1)[C@@H](N1CCCC1=O)[C@H](O)C(C)(C)O2 (relative stereo) [Example 14, 3,4-Dihydro-2,2-dimethyl-6-(2-methylphenylsulfonyl)-trans4-(2-oxo-1-pyrrolidinyl)-2H-benzo [b]pyran-3-ol] |  | Duration of elevated coronary outflow (single dose 200 ng): 13 min |
| CC1(C)Oc2ccc(S(=O)(=O)c3ccccc3)cc2[C@@H](N2CCCC2=O)[C@@H]1O (single isomer, unassigned) [Example 5a, (+)-3,4-Dihydro-2,2-dimethyl-6-phenylsulfonyl-4-(2-oxo-1-pyrrolidinyl)-2H-benzo[b]pyran-3-ol] |  | Duration of elevated coronary outflow (single dose 100 ng): 13 min |
| COc1cc2c(cc1S(=O)(=O)c1ccccc1)[C@@H](N1CCCC1=O)[C@H](O)C(C)(C)O2 [Example 3a, (+)-3,4-dihydro-2,2-dimethyl-7-methoxy-6-phenylsulfonyl-trans-4-(2-oxo-1-pyrrolidinyl)-2H-benzo[b]pyran-3-ol] | 11 min |  |
